Results: patent publication EP0680973A1, “Peptides, process to prepare them and their use” (priority 1994, dated 1995)
Ends that are not written are not given here.

Test system: HIV-1 Protease
Assay type: biochemical
Details: bei 50 µM, nur 1 Bestimmung; 5% DMSO

PQITLSDRLGGGGDRVSFNF-NH2 [HPQITLSDRLGGGGDRVSFNF-NH₂]
Inhibition der HIV-1 Protease: 36%⁺
